Reference: paper PMC5665883, “Antithrombotic properties of JJ1, a potent and novel thrombin inhibitor” (Scientific Reports, 2017)
Marks after values point to notes of the source that are not given here.

Key:
mouse platelet = assay: Ex vivo thrombin-induced platelet aggregation; assay type: in vivo; conditions: i.v. injection
Protocol: The in vitro platelet aggregation study was performed according to a previously reported method[59],[62]. Washed human platelets were incubated with the indicated concentration of JJ1 in DMSO for 1, 3, 5, or 10 min and subsequently stimulated by thrombin in 0.9% saline solution at 37 °C for 5 min. Platelet aggregation was recorded using an aggregometer (Chronolog, Havertown, PA, USA). For the ex vivo aggregation assay, male mice were fasted overnight and the indicated concentration of JJ1 in DMSO was administered by i.v. injection. After 24 h, PRP (10^9 platelets/mL) in a total volume of 240 μL was incubated at 37 °C for 1.5 min in the aggregometer with continuous stirring at 1000 rpm and subsequently stimulated with thrombin. Platelet aggregation was recorded as described above.

human plasma [1] = assay: In vitro PT clotting time; assay type: biochemical; conditions: for PT / PT (INR): in vitro
Protocol: (§1) The aPTT and PT were determined using a Thrombotimer (Behnk Elektronik, Norderstedt, Germany) in accordance with the manufacturer’s instructions and as previously described. Briefly, citrated normal human plasma (90 μL) was mixed with 10 μL JJ1 and incubated for 1 min at 37 °C. Subsequently, the aPTT assay reagent (100 μL) was added, the plasma sample was incubated for an additional 1 min at 37 °C, 20 mM CaCl2 (100 μL) was added, and the clotting times were recorded. For the PT assays, citrated normal human plasma (90 μL) was mixed with 10 μL JJ1 stock solution and was incubated for 1 min at 37 °C. The PT assay reagent (200 μL), which had been pre-incubated for 10 min at 37 °C, was subsequently added and the clotting time was recorded. The PT results were expressed in seconds and as International Normalized Ratios (INR): INR = (PT sample/PT control)^ISI, where ISI = international sensitivity index. The aPTT results were also expressed in seconds. All experimental protocols (KNUH 2012-01-010) were approved by the Institutional Review Board of Kyungpook National University Hospitals (Daegu, Republic of Korea).

[2] = In vivo tail bleeding time; parameters: species or system C57BL/6 mice; conditions: mice, i.v. injection, 1 h after administration
Protocol: Tail bleeding times were measured by using the method of Dejana et al.[63],[64]. Briefly, C57BL/6 mice were fasted overnight prior to the experiments. One hour after the i.v. administration of JJ1, the tails of the mice were transected at 2 mm from their tips. The bleeding time was defined as the time elapsed until the bleeding stopped. Bleeding times exceeding 15 min were recorded as lasting for 15 min.

thrombin = target: T1, thrombin (Homo sapiens, UniProt P00734); assay: Thrombin activity assay (amidolytic activity, S-2238); assay type: biochemical; conditions: α-Thrombin, chromogenic substrate; read-out: IC50, inhibition of amidolytic activity of thrombin (converted)
T1 construct: thrombin solution (150 μL, 10 U/mL) was added; purchased Haematologic Technologies (Essex Junction, VT)
Protocol: Following a 2-min incubation at 37 °C, thrombin solution (150 μL, 10 U/mL) was added, followed by incubation at 37 °C for 1 min. A solution of the thrombin substrate, S-2238, (150 μL, 1.5 mM) solution was subsequently added and the absorbance at 405 nm was monitored for 120 s using a spectrophotometer (TECAN, Männedorf, Switzerland).

[3] = FeCl3-induced arterial thrombosis model; assay type: in vivo, C57BL/6 mice; conditions: mice, i.v.
Protocol: The FeCl3-induced thrombosis mouse model was established as previously described. Male C57BL/6 mice were fasted overnight and were administered JJ1 in DMSO by intravenous injection. Then, mice were anesthetized using 3% isoflurane (Forane®, Choongwae Pharma. Corp., Seoul, Korea) and injected intravenously with 0.1 mL 0.1% rhodamine 6 G (Sigma). A testicular artery (200 μm in diameter) was carefully exposed and a cotton thread (200 μm in diameter) saturated with 0.25 mol/L FeCl3 was applied to the adventitial surface. After 5 min, the cotton thread was removed, and the wound was flushed with saline solution. Thrombus formation was monitored at 35 °C by 3-dimensional imaging as previously described. The size and time of thrombus formation were monitored, and the findings were scored as follows: no thrombus, 0; small thrombus (50 μm × 75 μm), 1; medium-sized thrombus (100 μm × 150 μm), 2; large thrombus (200 μm × 300 μm), 3. The time from FeCl3-mediated endothelial injury to occlusion of the testicular artery by a large thrombus was measured.

Ex vivo PT clotting time = assay type: in vivo, C57BL/6 mice; conditions: mice, i.v.; for PT: 1 h after administration
Protocol: as §1
Male C57BL/6 mice were fasted overnight. Each compound was dissolved in 0.5% DMSO and administered by i.v. injection. One hour after administration, arterial blood samples (0.1 mL) were collected in 3.8% sodium citrate (1:10, v/v) for the ex vivo aPTT and PT determination. The clotting times were determined as described above.

human plasma [4] = assay: In vitro aPTT clotting time; assay type: biochemical; conditions: at the maximum antithrombotic dose
Streptokinase = Streptokinase (Homo sapiens, UniProt P00747); assay: Chromogenic substrate assay, Ki (Dixon); assay type: biochemical
Sequence of Streptokinase (P00747 581-810 limits assumed): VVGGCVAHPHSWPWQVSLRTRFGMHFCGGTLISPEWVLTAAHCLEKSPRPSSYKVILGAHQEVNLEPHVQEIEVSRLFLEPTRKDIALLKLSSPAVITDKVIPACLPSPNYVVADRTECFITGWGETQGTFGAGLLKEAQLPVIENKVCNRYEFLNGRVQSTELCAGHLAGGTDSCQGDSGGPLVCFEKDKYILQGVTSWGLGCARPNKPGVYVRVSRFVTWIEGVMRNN

Trypsin = assay: Chromogenic substrate assay, Ki (Dixon); assay type: biochemical, human; conditions: Trypsin; mean ± SD (n = 5)
Protocol: Chromogenic substrate assays were performed using a Labsystems IEMS (Cergy Pontoise, France) microtiter plate reader. K i values were calculated according to the method of Dixon[65]. In each assay, the compound was tested at a minimum of seven concentrations, in duplicate, to obtain an inhibition curve. The following general procedures were adopted for each assay. In a 96-well microtiter plate, 25 μL of inhibitor solution or buffer was added to 50 μL of substrate. The enzyme solution (25 μL) was added just before the plate was placed in the microtiter plate reader for 1 h at 37 °C. The hydrolysis of the substrate yields p-nitroaniline, which was continuously monitored spectrophotometrically at 405 nm. The maximal initial reaction rates were calculated and expressed as millioptical density per minute.

Factor Xa = target: T2, Factor Xa (Homo sapiens, UniProt P00742); assay: Chromogenic substrate assay, Ki (Dixon); assay type: biochemical
T2 construct: thrombin versus trypsin, factor Xa, elastase, plasmin, protein Ca, streptokinase, tPA, and urokinase; purchased Haematologic Technologies (Essex Junction, VT)
T2 sequence (P00742 235-488 limits assumed): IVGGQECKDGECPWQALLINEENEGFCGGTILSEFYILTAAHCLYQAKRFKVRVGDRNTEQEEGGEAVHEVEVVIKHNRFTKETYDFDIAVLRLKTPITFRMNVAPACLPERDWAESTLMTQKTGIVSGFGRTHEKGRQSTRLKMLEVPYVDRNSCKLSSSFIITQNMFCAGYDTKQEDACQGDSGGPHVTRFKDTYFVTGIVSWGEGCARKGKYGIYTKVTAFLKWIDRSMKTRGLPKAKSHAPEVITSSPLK
T2 sequence (P00742 41-179 limits assumed): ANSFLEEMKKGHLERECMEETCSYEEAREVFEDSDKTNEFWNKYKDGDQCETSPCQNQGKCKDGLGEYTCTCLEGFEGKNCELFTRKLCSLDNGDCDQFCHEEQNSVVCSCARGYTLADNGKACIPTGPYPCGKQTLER

c1ccc2c(NC3CCCC3)nc(Nc3ccncc3)nc2c1 [JJ1]
Mouse platelet aggregation induced by thrombin, ex vivo (mouse platelet): confirmed in an ex vivo platelet aggregation assay
Concentration that doubled the clotting time, PT assay (human plasma [1]): 1.61 µM
PT (human plasma [1]; 0.05 μM): 12.1 ± 0.2 s
PT (INR) (human plasma [1]; 0.05 μM): 1.04 INR
PT (human plasma [1]; 0.1 μM): 11.7 ± 0.4 s
PT (INR) (human plasma [1]; 0.1 μM): 0.96 INR
PT (human plasma [1]; 0.2 μM): 12.7 ± 0.5 s
PT (INR) (human plasma [1]; 0.2 μM): 1.17 INR
PT (human plasma [1]; 0.5 μM): 15.4 ± 0.4 s
PT (INR) (human plasma [1]; 0.5 μM): 1.86* INR
PT (human plasma [1]; 1.0 μM): 21.4 ± 0.5 s
PT (INR) (human plasma [1]; 1.0 μM): 4.09* INR
PT (human plasma [1]; 2.0 μM): 25.8 ± 0.3 s
PT (INR) (human plasma [1]; 2.0 μM): 6.41* INR
PT (human plasma [1]; 5.0 μM): 26.5 ± 0.4 s
PT (INR) (human plasma [1]; 5.0 μM): 6.83* INR
Tail bleeding time ([2]; 0.31 μg/mouse): 30.6 ± 0.8 s
Tail bleeding time ([2]; 0.61 μg/mouse): 37.2 ± 1.0 s
Tail bleeding time ([2]; 1.23 μg/mouse): 44.8 ± 1.2 s
Tail bleeding time ([2]; 3.06 μg/mouse): 52.2 ± 1.4 s
IC50 (thrombin): 0.15 µM
Growth of thrombi (time to large thrombus formation) ([3]; FeCl3-induced thrombosis): significantly slowed the growth of thrombi
Thrombus size at 60 min after FeCl3-induced endothelial injury [3]: reduced FeCl3-induced thrombus formation
PT (INR) (Ex vivo PT clotting time; 0.31 μg/mouse): 1.08 INR
PT (Ex vivo PT clotting time; 0.31 μg/mouse): 12.4 ± 0.5 s
PT (INR) (Ex vivo PT clotting time; 0.61 μg/mouse): 2.37 INR
PT (Ex vivo PT clotting time; 0.61 μg/mouse): 17.2 ± 1.4 s
PT (INR) (Ex vivo PT clotting time; 1.23 μg/mouse): 4.42* INR
PT (Ex vivo PT clotting time; 1.23 μg/mouse): 22.3 ± 0.6 s
PT (INR) (Ex vivo PT clotting time; 3.06 μg/mouse): 6.88* INR
PT (Ex vivo PT clotting time; 3.06 μg/mouse): 26.8 ± 0.4 s
Prolongation of aPTT (human plasma [4]): 2.17 fold
Selectivity ratio (Streptokinase; K i Streptokinase/K i α-thrombin): >10,000
Ki (Streptokinase; Streptokinase): > 250 µM
Ki (Trypsin): > 250 µM
Ki (Factor Xa; Factor Xa): > 250 µM
Selectivity ratio (Factor Xa; K i Factor Xa/K i α-thrombin): >10,000
